Columns and labels:
[1] = target: T1, Protein deacetylase HDAC6 (Homo sapiens) (UniProt Q9UBN7); test: Inhibition of HDAC6 assessed as residual activity at 32 uM after 30 mins by Fluor de Lys fluorescence assay
T1 sequence (whole entry): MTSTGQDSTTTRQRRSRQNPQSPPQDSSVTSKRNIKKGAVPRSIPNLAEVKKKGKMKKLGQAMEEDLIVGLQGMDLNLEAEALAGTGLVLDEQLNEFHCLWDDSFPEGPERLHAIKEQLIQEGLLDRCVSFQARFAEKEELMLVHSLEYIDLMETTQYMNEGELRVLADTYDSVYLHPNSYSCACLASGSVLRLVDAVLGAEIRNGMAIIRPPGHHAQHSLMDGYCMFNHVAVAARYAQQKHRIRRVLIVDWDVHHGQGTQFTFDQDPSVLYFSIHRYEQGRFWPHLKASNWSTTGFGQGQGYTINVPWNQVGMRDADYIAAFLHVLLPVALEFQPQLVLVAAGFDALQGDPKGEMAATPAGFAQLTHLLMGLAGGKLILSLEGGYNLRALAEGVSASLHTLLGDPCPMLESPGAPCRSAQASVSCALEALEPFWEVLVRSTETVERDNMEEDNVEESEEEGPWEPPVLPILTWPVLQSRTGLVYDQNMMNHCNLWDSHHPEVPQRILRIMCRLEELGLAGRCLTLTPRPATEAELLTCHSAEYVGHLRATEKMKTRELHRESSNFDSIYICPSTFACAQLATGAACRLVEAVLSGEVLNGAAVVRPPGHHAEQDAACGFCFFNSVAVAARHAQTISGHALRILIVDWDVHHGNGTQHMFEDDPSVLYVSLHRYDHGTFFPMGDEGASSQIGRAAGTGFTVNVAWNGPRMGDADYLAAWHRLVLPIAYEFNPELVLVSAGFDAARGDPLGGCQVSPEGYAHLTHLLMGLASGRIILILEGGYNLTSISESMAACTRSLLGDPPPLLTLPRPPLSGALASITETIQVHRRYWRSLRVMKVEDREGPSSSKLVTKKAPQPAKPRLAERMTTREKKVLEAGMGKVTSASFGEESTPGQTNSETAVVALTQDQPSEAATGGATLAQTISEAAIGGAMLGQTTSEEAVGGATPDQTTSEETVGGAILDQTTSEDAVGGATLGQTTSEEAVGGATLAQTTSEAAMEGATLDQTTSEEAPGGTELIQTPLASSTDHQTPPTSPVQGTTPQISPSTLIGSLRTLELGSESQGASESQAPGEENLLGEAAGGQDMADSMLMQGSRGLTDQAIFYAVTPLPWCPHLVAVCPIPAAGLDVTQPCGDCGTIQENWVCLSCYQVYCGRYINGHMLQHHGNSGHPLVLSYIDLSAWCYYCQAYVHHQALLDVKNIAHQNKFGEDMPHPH

Histone deacetylase = test: Inhibition of human HDAC in HeLa cells after 30 mins by Fluor de Lys fluorescence assay; assay type: cell-based
Histone deacetylase 1 [2] = target: T2, Histone deacetylase 1 (Homo sapiens, UniProt Q13547); test: Inhibition of HDAC1 assessed as residual activity at 32 uM after 30 mins by Fluor de Lys fluorescence assay
Histone deacetylase 3 [3] = target: T3, Histone deacetylase 3 (Homo sapiens, UniProt O15379); test: Inhibition of HDAC3 assessed as residual activity at 32 uM after 30 mins by Fluor de Lys fluorescence assay
[4] = Selectivity ratio of IC50 for HDAC1 to IC50 for HDAC6
Histone deacetylase 1 [5] = target: T2, Histone deacetylase 1; conditions: 375 nM
[6] = target: T1, Protein deacetylase HDAC6 (Homo sapiens); conditions: 375 nM
Histone deacetylase 3 [7] = target: T3, Histone deacetylase 3; conditions: 375 nM
Histone deacetylase 1 [8] = target: T2, Histone deacetylase 1; test: Inhibition of HDAC1 after 30 mins by Fluor de Lys fluorescence assay
[9] = target: T4, Protein deacetylase HDAC6 (Homo sapiens, UniProt Q9UBN7); test: Inhibition of HDAC6 after 30 mins by Fluor de Lys fluorescence assay
T4 sequence (Q9UBN7 whole entry): T1 sequence (whole entry)

Histone deacetylase 3 [10] = target: T3, Histone deacetylase 3; test: Inhibition of HDAC3 after 30 mins by Fluor de Lys fluorescence assay
[11] = Selectivity ratio of IC50 for HDAC3 to IC50 for HDAC1
[12] = Selectivity ratio of IC50 for HDAC3 to IC50 for HDAC6

T3 sequence (O15379 whole entry): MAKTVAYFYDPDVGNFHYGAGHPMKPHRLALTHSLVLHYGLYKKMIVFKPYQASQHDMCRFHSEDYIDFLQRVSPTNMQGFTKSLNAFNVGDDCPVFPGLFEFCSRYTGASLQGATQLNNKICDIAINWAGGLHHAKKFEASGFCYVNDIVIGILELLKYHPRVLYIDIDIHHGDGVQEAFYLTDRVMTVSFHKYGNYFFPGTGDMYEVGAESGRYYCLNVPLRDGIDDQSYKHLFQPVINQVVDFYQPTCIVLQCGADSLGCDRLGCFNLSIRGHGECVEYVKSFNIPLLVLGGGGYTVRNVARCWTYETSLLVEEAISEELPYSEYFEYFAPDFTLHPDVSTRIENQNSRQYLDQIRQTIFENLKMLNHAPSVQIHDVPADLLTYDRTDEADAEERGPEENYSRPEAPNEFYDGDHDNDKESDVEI
T2 sequence (Q13547 whole entry): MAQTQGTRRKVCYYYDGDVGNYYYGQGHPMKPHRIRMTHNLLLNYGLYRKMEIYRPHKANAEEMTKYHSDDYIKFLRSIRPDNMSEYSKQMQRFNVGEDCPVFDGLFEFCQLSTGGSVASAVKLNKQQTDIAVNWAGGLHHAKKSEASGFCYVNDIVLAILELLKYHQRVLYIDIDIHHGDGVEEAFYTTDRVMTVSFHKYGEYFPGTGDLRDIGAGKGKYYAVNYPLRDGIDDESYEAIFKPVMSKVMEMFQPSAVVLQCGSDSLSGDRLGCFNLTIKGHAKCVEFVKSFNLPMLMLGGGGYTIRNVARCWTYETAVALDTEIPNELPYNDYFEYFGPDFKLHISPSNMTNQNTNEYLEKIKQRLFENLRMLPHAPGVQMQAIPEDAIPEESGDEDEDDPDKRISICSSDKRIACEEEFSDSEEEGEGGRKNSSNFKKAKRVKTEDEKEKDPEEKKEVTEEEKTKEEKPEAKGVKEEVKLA

| Structure (SMILES) | Activity [1] [%] | IC50 (Histone deacetylase) [µM] | Activity (Histone deacetylase 1 [2]) [%] | Activity (Histone deacetylase 3 [3]) [%] | Ratio IC50 [4] | also measured |
| --- | --- | --- | --- | --- | --- | --- |
| C=CC(CCCCC(=O)Nc1ccccc1)CC(=O)NO (configuration not stated) | 27 | 15 | 24 | 47 | – | – |
| O=C(CCCCCCC(=O)Nc1ccc([C@H]2O[C@@H](CSc3nc(-c4ccccc4)c(-c4ccccc4)o3)C[C@@H](c3ccc(CO)cc3)O2)cc1)NO | – | – | – | – | 7 | – |
| CCCCC(CCCCC(=O)Nc1ccccc1)CC(=O)NO (configuration not stated) | 24 | 184 | 33 | 51 | – | – |
| O=C(CC(CCCCC(=O)Nc1ccccc1)c1ccccc1)NO (configuration not stated) | 25 | 73 | 45 | 50 | – | – |
| CC(CCCCC(=O)Nc1ccccc1)CC(=O)NO (configuration not stated) | – | 0.35 | – | – | – | Activity (Histone deacetylase 1 [5]): 46%; Activity [6]: 74%; Activity (Histone deacetylase 3 [7]): 59% |
| CCC(CCCCC(=O)Nc1ccccc1)CC(=O)NO (configuration not stated) | 18 | 32 | 39 | 83 | 3 | IC50 (Histone deacetylase 1 [8]): 22 µM; IC50 [9]: 8 µM; IC50 (Histone deacetylase 3 [10]): 97 µM; Ratio IC50 [11]: 4; Ratio IC50 [12]: 12 |

— ChEMBL document CHEMBL1833846 (Bioorg Med Chem Lett, 2011)
